According to patent US20240252677A1, “ONE-COMPONENT DELIVERY SYSTEM FOR NUCLEIC ACIDS” (The Trustees of the University of Pennsylvania, priority 2021, published 2024):
Values belong to the molecule of their own block, whether it stands above or below them.

Experiments:
[1] = DLS size of dendrimersomes assembled from glycerol-JDs in water at different concentrations; assay type: physicochemical; conditions: for Dh (nm): size distribution by intensity
Protocol: Assembly of all eight glycerol-JDs was performed by injection of their ethanol solution (50 μL) into 1 mL of Milli-Q water. The size distribution and structure of resulting DSs were analyzed by DLS (FIG. 84) and cryo-TEM. […] In a certain concentration range the size of DSs increased with the concentration of JDs injected in water or buffer. […] The dimensions of the assemblies were identical when the concentrations of the JDs in water were identical. Sizes of assemblies from mixtures of 1R and 1S in different ratios (1:3, 1:1 and 3:1), were also identical (FIG. 84). […] With the exception of the rotation of polarized light, the physical properties of enantiomers and their racemic mixtures must be identical.
Dynamic light scattering (DLS). Hydrodynamic diameters (Dh) of the self-assemblies of dendrimer molecules and their size distributions were measured on a Malvern Instruments particle sizer (Zetasizer® Nano S, Malvern Instruments, UK) equipped with 4 mW He—Ne laser (633 nm) and avalanche photodiode positioned at […] to the beam and temperature controlled cuvette holder. Experiments were performed at 25° C. in triplicate. The distribution of radius was intensity.

[2] = pKa measurements of individual IAJD molecules by titration; assay type: physicochemical; conditions: individual IAJD molecule; for Avg pKa: average of pKa 1-3; for pKa 1: measurement 1; for pKa 2: measurement 2; for pKa: ethanol saturated with NaCl, titrated with 0.1 M aqueous HCl, Table 15
Protocol: pKa measurements of individual IAJD Molecules was performed as follows. IAJD Molecules were first dissolved in ethanol (Sat. with NaCl) at a concentration of 1.5 mg/mL and the solution volume was 3 mL.
Then 0.1 M HCl solution was added to the above ethanol solution with an increment of 7.5 μL. The resulting pH after each addition of HCl solution was measured by an Thermo Scientific Orion Star A121 meter with Thermo Scientific Orion 8220BNWP pH probe. pKa was determined using the half equivalence point titration.

Structure (SMILES): CCCCCCCCCCCCOc1cc(OCCCCCCCCCCCC)cc(C(=O)OCC(COC(=O)c2cc(OCCCCCCCCCCCC)cc(OCCCCCCCCCCCC)c2)OC(=O)C(C)(COC(=O)c2cc(OCCOCCOCCOC)c(OCCOCCOCCOC)c(OCCOCCOCCOC)c2)COC(=O)c2cc(OCCOCCOCCOC)c(OCCOCCOCCOC)c(OCCOCCOCCOC)c2)c1 [Compound 3, (3,5)-12G1-GC-(achiral)-BMPA-(3,4,5)-3EO-G2]
PDI ([1]; JD 0.025 mg·mL−1 in water): 0.272
Dh (nm) ([1]; JD 0.025 mg·mL−1 in water): 72 nm
PDI ([1]; JD 0.05 mg·mL−1 in water): 0.241
Dh (nm) ([1]; JD 0.05 mg·mL−1 in water): 97 nm
PDI ([1]; JD 0.1 mg·mL−1 in water): 0.183
Dh (nm) ([1]; JD 0.1 mg·mL−1 in water): 123 nm
PDI ([1]; JD 0.25 mg·mL−1 in water): 0.153
Dh (nm) ([1]; JD 0.25 mg·mL−1 in water): 144 nm
PDI ([1]; JD 0.5 mg·mL−1 in water): 0.152
Dh (nm) ([1]; JD 0.5 mg·mL−1 in water): 162 nm
PDI ([1]; JD 0.75 mg·mL−1 in water): 0.236
Dh (nm) ([1]; JD 0.75 mg·mL−1 in water): 224 nm
PDI ([1]; JD 1.0 mg·mL−1 in water): 0.233
Dh (nm) ([1]; JD 1.0 mg·mL−1 in water): 266 nm

Structure (SMILES): CCCCCCCCCCCCOc1cc(OCCCCCCCCCCCC)cc(C(=O)OCC(C)(COC(=O)c2cc(OCCCCCCCCCCCC)cc(OCCCCCCCCCCCC)c2)C(=O)OC(COC(=O)c2cc(OCCOCCOCCOC)c(OCCOCCOCCOC)c(OCCOCCOCCOC)c2)COC(=O)c2cc(OCCOCCOCCOC)c(OCCOCCOCCOC)c(OCCOCCOCCOC)c2)c1 [Compound 4, (3,5)-12G2-BMPA-GC-(achiral)-(3,4,5)-3EO-G1]
PDI ([1]; JD 0.025 mg·mL−1 in water): 0.391
Dh (nm) ([1]; JD 0.025 mg·mL−1 in water): 100 nm
PDI ([1]; JD 0.05 mg·mL−1 in water): 0.266
Dh (nm) ([1]; JD 0.05 mg·mL−1 in water): 102 nm
PDI ([1]; JD 0.1 mg·mL−1 in water): 0.136
Dh (nm) ([1]; JD 0.1 mg·mL−1 in water): 119 nm
PDI ([1]; JD 0.25 mg·mL−1 in water): 0.180
Dh (nm) ([1]; JD 0.25 mg·mL−1 in water): 132 nm
PDI ([1]; JD 0.5 mg·mL−1 in water): 0.183
Dh (nm) ([1]; JD 0.5 mg·mL−1 in water): 166 nm
PDI ([1]; JD 0.75 mg·mL−1 in water): 0.233
Dh (nm) ([1]; JD 0.75 mg·mL−1 in water): 210 nm
PDI ([1]; JD 1.0 mg·mL−1 in water): 0.291
Dh (nm) ([1]; JD 1.0 mg·mL−1 in water): 284 nm

Structure (SMILES): CCCCCCCCCCCCOc1cc(CNC(=O)c2cc(OCCOCCOCCOC)c(OCCOCCOCCOC(=O)CCCN(C)C)c(OCCOCCOCCOC)c2)cc(OCCCCCCCCCCCC)c1 [IAJD 2]
Avg pKa [2]: 6.20
pKa 1 ([2]; titration): 6.20

Structure (SMILES): CCCCCCCCCCCCOc1cc(CNC(=O)c2cc(OCCOCCOCCOC(=O)CCCN(C)C)c(OCCOCCOCCOC)c(OCCOCCOCCOC(=O)CCCN(C)C)c2)cc(OCCCCCCCCCCCC)c1 [IAJD 4]
Avg pKa [2]: 6.43
pKa 1 ([2]; titration): 6.43

Structure (SMILES): CCCCCCCCCCCCOc1cc(CNC(=O)c2cc(OCCOCCOCCOC(=O)CCCN(C)C)c(OCCOCCOCCOCc3ccccc3)c(OCCOCCOCCOC(=O)CCCN(C)C)c2)cc(OCCCCCCCCCCCC)c1 [IAJD 9]
Avg pKa [2]: 6.56
pKa 1 ([2]; titration): 6.52
pKa 2 ([2]; titration): 6.52
pKa 3 ([2]; titration, measurement 3): 6.64

Other lines, results leading:

Avg pKa [2]: 6.38
pKa 1 ([2]; titration): 6.43
pKa 2 ([2]; titration): 6.32
Structure (SMILES): CCCCCCCCCCCCOc1cc(OCCCCCCCCCCCC)cc(C(=O)OCC(COC(=O)c2cc(OCCCCCCCCCCCC)cc(OCCCCCCCCCCCC)c2)(COC(=O)c2cc(OCCOCCOCCOC)c(OCCOCCOCCOC)c(OCCOCCOCCOC(=O)CCCN(C)C)c2)NC(=O)c2cc(OCCOCCOCCOC)c(OCCOCCOCCOC)c(OCCOCCOCCOC)c2)c1 [IAJD 38]

Avg pKa [2]: 6.36
pKa 1 ([2]; titration): 6.38
pKa 2 ([2]; titration): 6.34
Structure (SMILES): CCCCCCCCCCCCOc1cc(OCCCCCCCCCCCC)cc(C(=O)OCC(COC(=O)c2cc(OCCCCCCCCCCCC)cc(OCCCCCCCCCCCC)c2)(COC(=O)c2cc(OCCOCCOCCOC(=O)CCCN(C)C)c(OCCOCCOCCOC)c(OCCOCCOCCOC(=O)CCCN(C)C)c2)NC(=O)c2cc(OCCOCCOCCOC)c(OCCOCCOCCOC)c(OCCOCCOCCOC)c2)c1 [IAJD 41]

Avg pKa [2]: 6.06
pKa 1 ([2]; titration): 6.06
Structure (SMILES): CCCCCCCCCCCCOc1cc(OCCCCCCCCCCCC)cc(C(=O)OCC(COC(=O)c2cc(OCCCCCCCCCCCC)cc(OCCCCCCCCCCCC)c2)(COC(=O)c2cc(OCCOCCOCCOC(=O)CCCN(C)C)c(OCCOCCOCCOC(=O)CCCN(C)C)c(OCCOCCOCCOC(=O)CCCN(C)C)c2)NC(=O)c2cc(OCCOCCOCCOC)c(OCCOCCOCCOC)c(OCCOCCOCCOC)c2)c1 [IAJD 42]

pKa ([2]; titration): 7.06
Structure (SMILES): CCCCCCCCCCCCOc1cc(COC(=O)CCCN(C)C)cc(OCCCCCCCCCCCC)c1 [IAJD 64, 3,5-Bis(dodecyloxy)benzyl 4-(dimethylamino)butanoate]

pKa ([2]; titration): 6.37
Structure (SMILES): CCCCCCCCCCCCOc1cc(COC(=O)CCCN2CCN(C)CC2)cc(OCCCCCCCCCCCC)c1 [IAJD 66, 3,5-Bis(dodecyloxy)benzyl 4-(4-methylpiperazin-1-yl)butanoate]

pKa ([2]; titration): 6.44
Structure (SMILES): CCCCCCCCCCCCOc1cc(CNC(=O)CCCN2CCN(C)CC2)cc(OCCCCCCCCCCCC)c1 [IAJD 70, N-(3,5-bis(dodecyloxy)benzyl)-4-(4-methylpiperazin-1-yl)butanamide]
